Assay results as given in ChEMBL document CHEMBL3352578 (J Med Chem, 2014).
Activity calls are given as the source filed them. The calls are words filed in the database; no cut-off is given here.

Tests used:
[1] = biological target: T1, Metabotropic glutamate receptor 2 (Homo sapiens, UniProt Q14416); assay: Positive allosteric modulation of human mGlu2 receptor expressed in CHO cells assessed as potentiation of glutamate-induced effect incubated for 30 mins prior to [35S]GTPgamma addition measured after 30 mins relative to glutamate; type: functional, cell-based
Target sequence in this assay (Q14416 19-872 limits assumed): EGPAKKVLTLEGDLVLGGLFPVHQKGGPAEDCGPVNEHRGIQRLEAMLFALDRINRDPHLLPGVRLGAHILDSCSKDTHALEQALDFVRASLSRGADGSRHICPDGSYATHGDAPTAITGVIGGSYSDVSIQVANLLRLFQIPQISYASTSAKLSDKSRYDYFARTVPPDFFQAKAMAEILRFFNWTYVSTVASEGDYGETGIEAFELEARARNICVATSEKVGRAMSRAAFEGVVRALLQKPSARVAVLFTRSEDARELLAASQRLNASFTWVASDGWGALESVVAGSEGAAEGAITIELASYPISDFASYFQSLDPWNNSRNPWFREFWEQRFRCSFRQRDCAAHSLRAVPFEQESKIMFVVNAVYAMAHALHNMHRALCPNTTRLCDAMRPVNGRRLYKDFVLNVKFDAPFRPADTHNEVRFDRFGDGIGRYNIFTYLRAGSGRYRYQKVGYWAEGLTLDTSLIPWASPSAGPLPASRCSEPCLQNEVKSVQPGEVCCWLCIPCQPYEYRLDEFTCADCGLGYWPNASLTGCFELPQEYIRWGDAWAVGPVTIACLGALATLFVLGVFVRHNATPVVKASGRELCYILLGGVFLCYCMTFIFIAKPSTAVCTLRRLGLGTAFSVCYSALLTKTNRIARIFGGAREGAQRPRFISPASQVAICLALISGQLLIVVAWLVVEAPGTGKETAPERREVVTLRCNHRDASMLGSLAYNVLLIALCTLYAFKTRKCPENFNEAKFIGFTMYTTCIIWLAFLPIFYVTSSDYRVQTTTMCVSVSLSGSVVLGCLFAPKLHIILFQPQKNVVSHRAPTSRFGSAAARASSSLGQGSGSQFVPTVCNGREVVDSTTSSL

[2] = biological target: hERG (KCNH2) (Homo sapiens, UniProt Q12809); assay: Inhibition of human ERG channel transfected in HEK293 cells at 3 uM by patch clamp technique; type: cell-based; conditions: HEK293 cells transfected with human ERG channel
[3] = biological target: T1, Metabotropic glutamate receptor 2; assay: Positive allosteric modulation of human mGlu2 receptor expressed in CHO cells assessed as potentiation of glutamate-induced effect incubated for 30 mins prior to [35S]GTPgamma addition measured after 30 mins; type: functional, cell-based
Target sequence in this assay (Q14416 whole entry): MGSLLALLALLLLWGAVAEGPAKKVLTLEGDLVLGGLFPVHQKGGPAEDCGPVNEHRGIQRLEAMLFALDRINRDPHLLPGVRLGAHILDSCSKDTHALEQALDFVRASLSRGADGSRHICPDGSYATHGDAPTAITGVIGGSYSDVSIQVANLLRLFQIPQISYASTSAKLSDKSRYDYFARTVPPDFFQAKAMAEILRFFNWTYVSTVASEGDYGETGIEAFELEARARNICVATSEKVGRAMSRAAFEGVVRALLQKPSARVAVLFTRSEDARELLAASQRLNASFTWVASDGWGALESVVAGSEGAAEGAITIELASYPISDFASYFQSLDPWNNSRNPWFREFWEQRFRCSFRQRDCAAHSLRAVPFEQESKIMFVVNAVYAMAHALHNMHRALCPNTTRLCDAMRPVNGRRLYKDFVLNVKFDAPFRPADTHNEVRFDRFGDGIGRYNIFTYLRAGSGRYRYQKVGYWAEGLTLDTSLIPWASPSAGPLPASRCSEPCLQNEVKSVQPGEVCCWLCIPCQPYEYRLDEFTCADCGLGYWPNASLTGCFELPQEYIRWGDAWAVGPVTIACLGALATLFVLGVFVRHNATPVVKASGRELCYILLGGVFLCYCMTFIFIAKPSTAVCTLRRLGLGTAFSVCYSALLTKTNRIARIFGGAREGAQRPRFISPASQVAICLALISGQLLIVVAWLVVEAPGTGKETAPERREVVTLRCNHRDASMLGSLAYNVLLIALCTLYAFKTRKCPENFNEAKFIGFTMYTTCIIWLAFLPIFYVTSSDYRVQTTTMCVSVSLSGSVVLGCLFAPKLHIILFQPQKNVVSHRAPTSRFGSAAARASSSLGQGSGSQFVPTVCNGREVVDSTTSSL

[4] = Metabolic stability in human liver microsomes assessed as compound metabolized at 5 uM after 15 mins by MS/MS analysis in presence of NADPH; type: ADME; conditions: read-out: Drug metabolism
[5] = Metabolic stability in rat liver microsomes assessed as compound metabolized at 5 uM after 15 mins by MS/MS analysis in presence of NADPH; type: ADME; conditions: read-out: Drug metabolism
[6] = system: Rattus norvegicus; assay: Positive allosteric modulation of mGlu2 receptor in Sprague-Dawley rat sleep-wake EEG paradigm model assessed as effect on intermediate state at 3 mg/kg, po after 4 hrs by electroencephalogram analysis; type: functional, organism-based; parameters: dose 3 mg/kg
[7] = Clearance in Sprague-Dawley rat at 2.5 mg/kg, iv; type: ADME, organism-based; parameters: dose 2.5 mg/kg, route intravenous; conditions: in vivo
[8] = Ratio of drug level in brain to plasma in Swiss mouse at 10 mg/kg, sc after 1 hr; type: ADME, organism-based; parameters: dose 10 mg/kg, route subcutaneous; conditions: brain and plasma, read-out: BPR
[9] = system: Rattus norvegicus; assay: Positive allosteric modulation of mGlu2 receptor in Sprague-Dawley rat sleep-wake EEG paradigm model assessed as effect on passive wake stage at 3 mg/kg, po after 4 hrs by electroencephalogram analysis; type: functional, organism-based; parameters: dose 3 mg/kg
[10] = Tmax in Sprague-Dawley rat at 2.5 mg/kg, iv; type: ADME, organism-based; parameters: dose 2.5 mg/kg, route intravenous; conditions: in vivo
[11] = system: Rattus norvegicus; assay: Positive allosteric modulation of mGlu2 receptor in Sprague-Dawley rat sleep-wake EEG paradigm model assessed as reduction in REM sleep at 3 mg/kg, po after 4 hrs by electroencephalogram analysis; type: functional, organism-based; parameters: dose 3 mg/kg
[12] = AUC (0 to infinity) in Sprague-Dawley rat at 10 mg/kg, po; type: ADME, organism-based; parameters: time infinity, dose 10 mg/kg, route oral; conditions: plasma
[13] = system: Rattus norvegicus; assay: Positive allosteric modulation of mGlu2 receptor in Sprague-Dawley rat sleep-wake EEG paradigm model assessed as effect on light sleep stage at 3 mg/kg, po after 4 hrs by electroencephalogram analysis; type: functional, organism-based; parameters: dose 3 mg/kg
[14] = Elimination half life in Sprague-Dawley rat at 2.5 mg/kg, iv; type: ADME, organism-based; parameters: dose 2.5 mg/kg, route intravenous; conditions: in vivo, read-out: beta t1/2 (converted)
[15] = system: Rattus norvegicus; assay: Positive allosteric modulation of mGlu2 receptor in Sprague-Dawley rat sleep-wake EEG paradigm model assessed as effect on active wake stage at 3 mg/kg, po after 4 hrs by electroencephalogram analysis; type: functional, organism-based; parameters: dose 3 mg/kg
[16] = system: Rattus norvegicus; assay: Positive allosteric modulation of mGlu2 receptor in po dosed Sprague-Dawley rat assessed effect on sleep-wake EEG paradigm after 20 hrs by electroencephalogram analysis; type: functional; conditions: for minimal effective dose: Rattus norvegicus, Sprague-Dawley, po, 20 h, read-out: MED
[17] = Oral bioavailability in Sprague-Dawley rat at 10 mg/kg; type: ADME, organism-based; conditions: in vivo
[18] = Cmax in Sprague-Dawley rat at 10 mg/kg, po; type: ADME, organism-based; parameters: dose 10 mg/kg, route oral; conditions: in vivo
[19] = system: Rattus norvegicus; assay: Positive allosteric modulation of mGlu2 receptor in Sprague-Dawley rat sleep-wake EEG paradigm model assessed as effect on deep sleep stage at 3 mg/kg, po after 4 hrs by electroencephalogram analysis; type: functional, organism-based; parameters: dose 3 mg/kg

Sequence of hERG (KCNH2) (Q12809 whole entry): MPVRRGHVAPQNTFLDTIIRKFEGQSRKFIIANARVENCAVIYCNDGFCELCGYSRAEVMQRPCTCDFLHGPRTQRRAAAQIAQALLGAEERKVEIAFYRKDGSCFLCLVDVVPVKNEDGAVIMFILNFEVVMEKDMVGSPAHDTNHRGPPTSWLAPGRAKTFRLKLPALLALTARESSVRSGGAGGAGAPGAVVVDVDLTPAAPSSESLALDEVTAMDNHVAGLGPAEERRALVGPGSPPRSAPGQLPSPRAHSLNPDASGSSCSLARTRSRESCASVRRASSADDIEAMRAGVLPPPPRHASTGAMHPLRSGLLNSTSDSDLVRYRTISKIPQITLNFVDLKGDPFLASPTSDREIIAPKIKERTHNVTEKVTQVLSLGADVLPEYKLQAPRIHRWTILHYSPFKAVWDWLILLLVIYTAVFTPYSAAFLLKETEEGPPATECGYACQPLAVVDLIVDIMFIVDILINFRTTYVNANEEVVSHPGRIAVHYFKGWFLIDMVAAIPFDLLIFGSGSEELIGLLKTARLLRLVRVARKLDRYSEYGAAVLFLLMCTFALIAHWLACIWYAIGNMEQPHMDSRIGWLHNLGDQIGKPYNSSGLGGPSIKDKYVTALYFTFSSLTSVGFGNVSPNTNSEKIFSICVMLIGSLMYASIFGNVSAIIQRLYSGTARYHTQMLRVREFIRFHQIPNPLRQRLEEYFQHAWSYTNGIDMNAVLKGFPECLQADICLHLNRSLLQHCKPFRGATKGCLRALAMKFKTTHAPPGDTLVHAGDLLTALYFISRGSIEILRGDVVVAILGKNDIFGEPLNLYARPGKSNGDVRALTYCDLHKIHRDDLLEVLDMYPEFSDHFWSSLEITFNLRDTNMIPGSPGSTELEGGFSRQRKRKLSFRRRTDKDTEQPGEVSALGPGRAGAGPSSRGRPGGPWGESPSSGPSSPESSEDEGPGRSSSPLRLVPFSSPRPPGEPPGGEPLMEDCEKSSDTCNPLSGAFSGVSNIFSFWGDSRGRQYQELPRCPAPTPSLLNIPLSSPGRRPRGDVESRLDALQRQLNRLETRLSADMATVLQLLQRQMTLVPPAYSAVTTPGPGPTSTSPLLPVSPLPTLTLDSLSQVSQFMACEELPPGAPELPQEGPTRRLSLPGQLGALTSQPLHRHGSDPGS

| SMILES | Emax [1] | EC50 [3] | metabolised at 0.25 h, 5 µM [4] | metabolised at 0.25 h, 5 µM [5] | inhibition at 3 µM [2] | other results |
| --- | --- | --- | --- | --- | --- | --- |
| N#Cc1c(N2CCC(c3ccccc3)CC2)ccn(CCC2CC2)c1=O | 316% | 178 nM | 50% | 61% | – | – |
| O=c1c(Cl)c(N2CCC(c3ccccc3)CC2)ccn1CC1CC1 | 259% | 170 nM | 17% | 30% | 51% | Activity [6]: inactive; clearance [7]: 24 mL/min/kg; Kp at 1 h [8]: 0.9; Activity [9]: inactive; Tmax [10]: 0.5 h; Activity [11]: inactive; AUC(0-inf) [12]: 2310 ng·h/mL; Activity [13]: inactive; half-life [14]: 3.5 h; Activity [15]: inactive; MEC [16]: >986 ng/mL; minimal effective dose [16]: > 10 mg/kg; bioavailability [17]: 34%; Cmax [18]: 986 ng/mL; Activity [19]: inactive |
| CC(C)CCn1ccc(N2CCN(c3ccccc3)CC2)c(C#N)c1=O | 118% | 661 nM | 50% | 90% | – | – |
| CC(C)CCn1ccc(N2CCN(c3ccccn3)CC2)c(C#N)c1=O | 304% | 3090 nM | 51% | 54% | – | – |
| CC(C)CCn1ccc(N2CCCC(c3ccccc3)C2)c(C#N)c1=O (stereo unspecified) | 231% | 3310 nM | 80% | 98% | – | – |
| CC(C)CCn1ccc(N2CCCCC2)c(C#N)c1=O | 185% | 31600 nM | 67% | 100% | – | – |
| N#Cc1c(N2CCC(c3ccccc3)CC2)ccn(CCCC(F)(F)F)c1=O | 302% | 355 nM | 18% | 43% | – | – |
| CC(C)Cn1ccc(N2CCC(c3ccccc3)CC2)c(Cl)c1=O | 260% | – | 12% | 31% | 24% | Activity [6]: inactive; clearance [7]: 13 mL/min/kg; Kp at 1 h [8]: 0.8; Activity [9]: inactive; Tmax [10]: 0.7 h; Activity [11]: Active; AUC(0-inf) [12]: 3460 ng·h/mL; Activity [13]: inactive; half-life [14]: 2.6 h; Activity [15]: inactive; MEC [16]: 407 ng/mL; minimal effective dose [16]: 3 mg/kg; bioavailability [17]: 25%; Cmax [18]: 1360 ng/mL; Activity [19]: inactive |
| N#Cc1c(N2CCC(c3ccccc3)CC2)ccn(CC2CC2)c1=O | 309% | 151 nM | 25% | 44% | 58% | Activity [6]: inactive; clearance [7]: 18 mL/min/kg; Kp at 1 h [8]: 0.3; Activity [9]: inactive; Tmax [10]: 0.5 h; Activity [11]: Active; AUC(0-inf) [12]: 4350 ng·h/mL; Activity [13]: inactive; half-life [14]: 2.1 h; Activity [15]: inactive; MEC [16]: 420 ng/mL; minimal effective dose [16]: 3 mg/kg; bioavailability [17]: 51%; Cmax [18]: 1410 ng/mL; Activity [19]: inactive |
| CC(C)CCn1ccc(N2CCN(Cc3ccccc3)CC2)c(C#N)c1=O | 304% | 4680 nM | 38% | 85% | – | – |
| N#Cc1c(N2CCC(c3cccc(F)c3)CC2)ccn(CC2CC2)c1=O | 268% | 141 nM | 35% | 37% | 87% | – |
| CC(C)CCn1ccc(N(C)Cc2ccccc2)c(C#N)c1=O | 249% | 10700 nM | 69% | 100% | – | – |
| N#Cc1c(N2CCC(c3cc(F)cc(F)c3)CC2)ccn(CC2CC2)c1=O | 234% | 151 nM | 30% | 45% | 95% | – |
| CC(C)CCn1ccc(OCc2ccccc2)c(C#N)c1=O | 173% | 2950 nM | 22% | 90% | – | – |
| CC(C)CCn1ccc(CCc2ccccc2)c(C#N)c1=O | 168% | 361 nM | 91% | 99% | – | – |
| CC(C)CCn1ccc(N2CCc3ccccc3C2)c(C#N)c1=O | 310% | 871 nM | 74% | 100% | – | – |
| CC(C)Cn1ccc(N2CCC(c3ccccc3)CC2)c(C#N)c1=O | 316% | 282 nM | 37% | 47% | – | – |
| O=c1c(C(F)(F)F)c(N2CCC(c3ccccc3)CC2)ccn1CC1CC1 | 239% | – | 33% | 89% | – | – |
| CC(C)CCn1ccc(-c2ccccc2)c(C#N)c1=O | 135% | – | 36% | 100% | – | – |

Second part, led by results:

| Emax [1] | EC50 [3] | metabolised at 0.25 h, 5 µM [4] | metabolised at 0.25 h, 5 µM [5] | SMILES | inhibition at 3 µM [2] | other results |
| --- | --- | --- | --- | --- | --- | --- |
| 291% | 31 nM | 18% | 42% | N#Cc1c(N2CCC(c3c(F)cccc3F)CC2)ccn(CC2CC2)c1=O | 86% | – |
| 257% | 98 nM | 76% | 57% | COc1ccc(C2CCN(c3ccn(CC4CC4)c(=O)c3C#N)CC2)cc1 | – | – |
| 265% | 35 nM | 53% | 68% | COc1ccccc1C1CCN(c2ccn(CC3CC3)c(=O)c2C#N)CC1 | 65% | – |
| 191% | 46 nM | 35% | 39% | N#Cc1c(N2CCC(c3cccc(C(F)(F)F)c3)CC2)ccn(CC2CC2)c1=O | 97% | – |
| 249% | 48 nM | 28% | 21% | N#Cc1c(N2CCC(c3ccc(Cl)cc3)CC2)ccn(CC2CC2)c1=O | – | – |
| 272% | 68 nM | 17% | 34% | N#Cc1c(N2CCC(c3ccc(F)cc3F)CC2)ccn(CC2CC2)c1=O | – | – |
| 259% | 49 nM | 22% | 34% | N#Cc1c(N2CCC(c3ccccc3Cl)CC2)ccn(CC2CC2)c1=O | – | – |
| 269% | 55 nM | 46% | 86% | N#Cc1c(N2CCC(c3ccccc3)CC2)ccn(CC2CCC2)c1=O | – | – |
| 268% | 102 nM | 28% | 97% | CC(C)CCn1ccc(N2CCC(c3ccccc3)CC2)c(C#N)c1=O | – | – |
| 282% | 81 nM | 30% | 42% | N#Cc1c(N2CCC(c3ccccc3F)CC2)ccn(CC2CC2)c1=O | 75% | – |
| 309% | 95 nM | 30% | 62% | CCCCn1ccc(N2CCC(c3ccccc3)CC2)c(C#N)c1=O | – | – |
| 258% | 89 nM | 31% | 36% | N#Cc1c(N2CCC(c3ccc(F)cc3)CC2)ccn(CC2CC2)c1=O | 89% | – |
